Molecular target: IRAK4 kinase (Homo sapiens (Human), UniProt Q9NWZ3)
Assay: IRAK4 kinase activity assay (mobility shift, Km ATP)
Type: biochemical
Details: Km ATP (15.6 μM ATP), 1 nM IRAK4, 60 min room temperature
Procedure: Inhibitory activity (IC50) of the compounds against IRAK4 kinase under Km ATP was detected through mobility spectrum analysis (MSA). IRAK4 kinase was purchased from Carna (Cat. No.: 09-145, batch No.: 14CBS-0020H), and Kinase Substrate 8 was purchased from GL Biochem (Cat. No.: 112396, batch No.: P171207-MJI112396).
The compounds were prepared with DMSO to 100 times the final reaction concentration and diluted to 10 concentrations in sequence at a 3-fold dilution ratio starting from 1 μM. Then 0.25 μL was transferred to a 384-well plate using Echo550. A 1× kinase buffer (50 mM HEPES, pH=7.5, 0.0015% Brij-35, 10 mM MgCl2, 2 mM DTT) was used to prepare a kinase solution of 2.5 times the final concentration. Then 10 μL of the kinase solution of 2.5 times the final concentration was added to each compound well, shaken and mixed uniformly, and incubated at room temperature for 10 min. A 1× kinase buffer was used to prepare a mixed solution of ATP and substrate Kinase Substrate 8 with a concentration of 25/15 times the final concentration. 15 μL of the mixed solution of ATP and the substrate with a concentration of 25/15 times the final concentration were added to each well (the final concentration of IRAK4 kinase was 1 nM, the final concentration of the substrate was 3 μM, and the final concentration of ATP was 15.6 μM), shaken and mixed uniformly, and reacted at room temperature for 60 min. Finally, 30 μL of stopping solution (100 mM HEPES, pH=7.5, 0.0015% Brij-35, 0.2% Coating Reagent #3, 50 mM EDTA) was added to terminate the reaction. CaliperEZ Reader II was used to read data about conversion rates that was then converted into data about inhibition rates. According to the data about the inhibition rate at each concentration, the half maximal inhibitory concentration (IC50) (Table 1) was calculated by a Logit method.

Chain of IRAK4 kinase (Q9NWZ3 whole entry): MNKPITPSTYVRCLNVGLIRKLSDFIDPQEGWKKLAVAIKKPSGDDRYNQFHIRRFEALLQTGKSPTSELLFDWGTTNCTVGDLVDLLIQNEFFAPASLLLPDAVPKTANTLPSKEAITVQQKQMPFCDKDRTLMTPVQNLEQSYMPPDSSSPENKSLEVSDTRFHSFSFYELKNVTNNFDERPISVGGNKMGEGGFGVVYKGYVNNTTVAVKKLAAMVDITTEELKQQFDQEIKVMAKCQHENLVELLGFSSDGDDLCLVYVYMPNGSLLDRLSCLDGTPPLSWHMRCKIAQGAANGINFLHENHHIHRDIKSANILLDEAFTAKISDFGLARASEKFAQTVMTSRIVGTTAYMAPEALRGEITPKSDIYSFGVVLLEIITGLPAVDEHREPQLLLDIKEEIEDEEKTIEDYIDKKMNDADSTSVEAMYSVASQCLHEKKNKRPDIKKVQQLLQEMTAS

IC50	SMILES
4.3 nM	CC(=O)N1CCC(N2CC(n3cc(NC(=O)c4cccc(-c5cnn(C(F)F)c5)n4)c(C(F)F)n3)C2)CC1 [Example 5, N-(1-(1-(1-acetylpiperidin-4-yl)azetidin-3-yl)-3-(difluoromethyl)-1H-pyrazol-4-yl)-6-(1-(difluoromethyl)-1H-pyrazol-4-yl)-2-picolinamide]
4.2 nM	CC(=O)N1CCC(N2CC(n3cc(NC(=O)c4cccc(-c5cnn(C)c5)n4)c(C(F)F)n3)C2)CC1 [Example 6, N-(1-(1-(1-acetylpiperidin-4-yl)azetidin-3-yl)-3-(difluoromethyl)-1H-pyrazol-4-yl)-6-(1-methyl-1H-pyrazol-4-yl)-2-picolinamide]
3.3 nM	CCn1cc(-c2cccc(C(=O)Nc3cn(C4CN(C5CCN(C(C)=O)CC5)C4)nc3C(F)F)n2)cn1 [Example 7, N-(1-(1-(1-acetylpiperidin-4-yl)azetidin-3-yl)-3-(difluoromethyl)-1H-pyrazol-4-yl)-6-(1-ethyl-1H-pyrazol-4-yl)-2-picolinamide]
1.9 nM	CC(=O)N1CCC(N2CC(n3cc(NC(=O)c4cccc(-c5cnn(C(C)C)c5)n4)c(C(F)F)n3)C2)CC1 [Example 8, N-(1-(1-(1-acetylpiperidin-4-yl)azetidin-3-yl)-3-(difluoromethyl)-1H-pyrazol-4-yl)-6-(1-isopropyl-1H-pyrazol-4-yl)-2-picolinamide]
2.5 nM	CC(=O)N1CCC(N2CC(n3cc(NC(=O)c4cccc(-c5cnn(C6(C#N)CC6)c5)n4)c(C(F)F)n3)C2)CC1 [Example 9, N-(1-(1-(1-acetylpiperidin-4-yl)azetidin-3-yl)-3-(difluoromethyl)-1H-pyrazol-4-yl)-6-(1-(1-cyanocyclopropyl)-1H-pyrazol-4-yl)-2-picolinamide]
2 nM	CC(=O)N1CCC(N2CC(n3cc(NC(=O)c4cccc(-c5cnn(C6(C#N)CCC6)c5)n4)c(C(F)F)n3)C2)CC1 [Example 10, N-(1-(1-(1-acetylpiperidin-4-yl)azetidin-3-yl)-3-(difluoromethyl)-1H-pyrazol-4-yl)-6-(1-(1-cyanocyclobutyl)-1H-pyrazol-4-yl)-2-picolinamide]
1.6 nM	CC(=O)N1CCC(N2CC(n3cc(NC(=O)c4cccc(-c5cnn(C6(CN)CCC6)c5)n4)c(C(F)F)n3)C2)CC1 [Example 11, N-(1-(1-(1-acetylpiperidin-4-yl)azetidin-3-yl)-3-(difluoromethyl)-1H-pyrazol-4-yl)-6-(1-(1-(aminomethyl)cyclobutyl)-1H-pyrazol-4-yl)-2-picolinamide]
3.2 nM	CC(=O)N1CCC(N2CC(n3cc(NC(=O)c4cccc(-c5cnn(C6(CO)CCC6)c5)n4)c(C(F)F)n3)C2)CC1 [Example 14, N-(1-(1-(1-acetylpiperidin-4-yl)azetidin-3-yl)-3-(difluoromethyl)-1H-pyrazol-4-yl)-6-(1-(1-(hydroxymethyl)cyclobutyl)-1H-pyrazol-4-yl)-2-picolinamide]
3.9 nM	CC(=O)N1CCC(N2CC(n3cc(NC(=O)c4cccc(-c5cnn(CC(C)(C)O)c5)n4)c(C(F)F)n3)C2)CC1 [Example 15, N-(1-(1-(1-acetylpiperidin-4-yl)azetidin-3-yl)-3-(difluoromethyl)-1H-pyrazol-4-yl)-6-(1-(2-hydroxy-2-methylpropyl)-1H-pyrazol-4-yl)-2-picolinamide]
1.8 nM	CC(=O)N1CCC(N2CC(n3cc(NC(=O)c4cccc(-c5cnn(C(C)(C)CO)c5)n4)c(C(F)F)n3)C2)CC1 [Example 16, N-(1-(1-(1-acetylpiperidin-4-yl)azetidin-3-yl)-3-(difluoromethyl)-1H-pyrazol-4-yl)-6-(1-(1-hydroxy-2-methylpropyl-2-yl)-1H-pyrazol-4-yl)-2-picolinamide]
0.57 nM	CN(C)C(=O)N1CCC(N2CC(n3cc(NC(=O)c4cccc(-c5cnn(C(C)(C)CN)c5)n4)c(C(F)F)n3)C2)CC1 [Example 17, 6-(1-(1-Amino-2-methylpropan-2-yl)-1H-pyrazol-4-yl)-N-(3-(difluoromethyl)-1-(1-(1-(dimethylcarbamoyl)piperidin-4-yl)azetidin-3-yl)-1H-pyrazol-4-yl)-2-picolinamide]
0.67 nM	COC(=O)N1CCC(N2CC(n3cc(NC(=O)c4cccc(-c5cnn(C(C)(C)CN)c5)n4)c(C(F)F)n3)C2)CC1 [Example 18, Methyl 4-(3-(4-(6-(1-(1-amino-2-methylpropan-2-yl)-1H-pyrazol-4-yl)-2-picolinamide)-3-(difluoromethyl)-1H-pyrazol-1-yl)azetidin-1-yl)piperidine-1-carboxylate]
1.9 nM	CC(=O)N1CCC(N2CC(n3cc(NC(=O)c4cccc(-c5cn[nH]c5)n4)c(C(F)F)n3)C2)CC1 [Example 19, N-(1-(1-(1-acetylpiperidin-4-yl)azetidin-3-yl)-3-(difluoromethyl)-1H-pyrazol-4-yl)-6-(1H-pyrazol-4-yl)-2-picolinamide]
3.2 nM	CN(C)C(=O)N1CCC(N2CC(n3cc(NC(=O)c4cccc(-c5cn[nH]c5)n4)c(C(F)F)n3)C2)CC1 [Example 20, N-(3-(difluoromethyl)-1-(1-(1-(dimethylcarbamoyl)piperidin-4-yl)azetidin-3-yl)-1H-pyrazol-4-yl)-6-(1H-pyrazol-4-yl)-2-picolinamide]
1.7 nM	COC(=O)N1CCC(N2CC(n3cc(NC(=O)c4cccc(-c5cn[nH]c5)n4)c(C(F)F)n3)C2)CC1 [Example 21, Methyl 4-(3-(4-(6-(1H-pyrazol-4-yl)-2-picolinamide)-3-(difluoromethyl)-1H-pyrazol-1-yl)azetidin-1-yl)piperidine-1-carboxylate]
2.5 nM	C=CC(=O)N1CCC(N2CC(n3cc(NC(=O)c4cccc(-c5cn[nH]c5)n4)c(C(F)F)n3)C2)CC1 [Example 22, N-(1-(1-(1-acryloylpiperidin-4-yl)azetidin-3-yl)-3-(difluoromethyl)-1H-pyrazol-4-yl)-6-(1H-pyrazol-4-yl)-2-picolinamide]
0.63 nM	C=CC(=O)N1CCC(N2CC(n3cc(NC(=O)c4cccc(-c5cc[nH]n5)n4)c(C(F)F)n3)C2)CC1 [Example 23, N-(1-(1-(1-acryloylpiperidin-4-yl)azetidin-3-yl)-3-(difluoromethyl)-1H-pyrazol-4-yl)-6-(1H-pyrazol-3-yl)-2-picolinamide]
0.65 nM	COC(=O)N1CCC(N2CC(n3cc(NC(=O)c4cccc(-c5cc[nH]n5)n4)c(C(F)F)n3)C2)CC1 [Example 25, Methyl 4-(3-(4-(6-(1H-pyrazol-3-yl)-2-picolinamide)-3-(difluoromethyl)-1H-pyrazol-1-yl)azetidin-1-yl)piperidine-1-carboxylate]
0.54 nM	CCC(=O)N1CCC(N2CC(n3cc(NC(=O)c4cccc(-c5cc[nH]n5)n4)c(C(F)F)n3)C2)CC1 [Example 26, N-(3-(difluoromethyl)-1-(1-(1-propionylpiperidin-4-yl)azetidin-3-yl)-1H-pyrazol-4-yl)-6-(1H-pyrazol-3-yl)-2-picolinamide]
0.68 nM	CN(C)C(=O)N1CCC(N2CC(n3cc(NC(=O)c4cccc(-c5cc[nH]n5)n4)c(C(F)F)n3)C2)CC1 [Example 28, N-(3-(difluoromethyl)-1-(1-(1-(dimethylcarbamoyl)piperidin-4-yl)azetidin-3-yl)-1H-pyrazol-4-yl)-6-(1H-pyrazol-3-yl)-2-picolinamide]
0.81 nM	CC(C)C(=O)N1CCC(N2CC(n3cc(NC(=O)c4cccc(-c5cc[nH]n5)n4)c(C(F)F)n3)C2)CC1 [Example 29, N-(3-(difluoromethyl)-1-(1-(1-isobutyrylpiperidin-4-yl)azetidin-3-yl)-1H-pyrazol-4-yl)-6-(1H-pyrazol-3-yl)-2-picolinamide]
3.3 nM	C[C@H](O)C(=O)N1CCC(N2CC(n3cc(NC(=O)c4cccc(-c5cnn(CC(F)(F)F)c5)n4)c(C(F)F)n3)C2)CC1 [Example 30, (S)—N-(3-(difluoromethyl)-1-(1-(1-(2-hydroxypropionyl)piperidin-4-yl)azetidin-3-yl)-1H-pyrazol-4-yl)-6-(1-(2,2,2-trifluoroethyl)-1H-pyrazol-4-yl)-2-picolinamide]
4.9 nM	CS(=O)(=O)N1CCC(N2CC(n3cc(NC(=O)c4cccc(-c5cnn(CC(F)(F)F)c5)n4)c(C(F)F)n3)C2)CC1 [Example 33, N-(3-(difluoromethyl)-1-(1-(1-(methylsulfonyl)piperidin-4-yl)azetidin-3-yl)-1H-pyrazol-4-yl)-6-(1-(2,2,2-trifluoroethyl)-1H-pyrazol-4-yl)-2-picolinamide]
5.8 nM	CS(=O)(=O)N1CCC(N2CC(n3cc(NC(=O)c4cccc(-c5cnn(CC(F)F)c5)n4)c(C(F)F)n3)C2)CC1 [Example 37, 6-(1-(2,2-Difluoroethyl)-1H-pyrazol-4-yl)-N-(3-(difluoromethyl)-1-(1-(1-(methylsulfonyl)piperidin-4-yl)azetidin-3-yl)-1H-pyrazol-4-yl)-2-picolinamide]
